Experimental data: patent US20200368322A1, “METHODS OF IDENTIFYING AND USING AGENTS FOR TREATING DISEASES ASSOCIATED WITH INTESTINAL BARRIER DYSFUNCTION” (Yeda Research and Development Co. Ltd., priority 2018, published 2020)
“Also recorded” adds a separate entry of the source.

Experiments:
[1] = test system: focal adhesions of Caco2 cells; assay: Caco2 cell-matrix focal adhesions (paxillin staining); format: cell-based, human; conditions: for focal adhesions size vs control non treated cells / enlargement of focal adhesions caused by LPS: 1 mM tryptamine, 10 mM L-homo-serine; for enlargement of focal adhesions caused by LPS: with LPS; for focal adhesions size: 10 mM acetyl-proline, 1 mM putrescine, 10 mM histamine, 5 mM spermine
Procedure: (§1) CaCo-2 cells were purchased from ATCC. Cells were routinely grown in regular tissue culture medium (DMEM, 10% FCS, penicillin/streptomycin, GlutaMAX). For experiments with differing glucose concentrations, cells were routinely cultured in low-glucose DMEM (1 g/l glucose). Cells were seeded onto 96-well glass-bottom plates coated with either fibronectin or collagen 70 000 cells/well and allowed to grow for 24 hours to form confluent monolayer before indicated treatments.
(§2) For high resolution images of manually selected representative fields, a DeltaVision wide field fluorescent microscope (GE Healthcare) equipped with 40×UPlanFLN or 60×/1.42 PlanApo N oil objective (Olympus) was used. For multi-well plate scanning, the following automated imaging stations were used: DeltaVision microscope with plate scanning regiment, Hermes imaging station (IDEA bio-Medical) or ImagExpress microXL imaging station (Molecular Devices) equipped by 40× air objectives. In all cases in order to cover the curvature of apical surface of epithelial monolayer 5 μm thick z-stack was acquired around the tight junction plane (identified by best focus algorithm) and resulting image was generated as a maximum projection of all optical sections.

[2] = test system: tight junctions of Caco2 cells; assay: Caco2 tight junction morphology (cingulin or ZO-1 staining, tortuosity); format: cell-based, human; conditions: for tight junction distortion caused by LPS: 10 mM taurine, 1 mM tryptamine, 10 mM L-homo-serine, in combination with LPS; for tight junction morphology: 10 mM acetyl-proline, 1 mM putrescine, 10 mM histamine, 5 mM spermine; for tight junction disruption phenotype (type 1 zipper-like, type 2 flower-like): known IBD mediators; for tight junction phenotype in combination with LPS: type 2 disruptor plus LPS; for recovery of TJ structure on replacement of disruptors with stabilizer: CaCo2 cells pretreated with LPS, histamine or putrescine, even in the presence of the disruptors
Procedure: as §1, §2
(§3) Cell images were segmented using Morphological Segmentation ImageJ plug-in and junction tortuosity was calculated as a ratio between junction length and Euclidian distance between its ends.

Caco2 cells [3] = assay: Traction force microscopy; format: cell-based, human; conditions: Caco2 islands on polyacrylamide hydrogels, 24 hours treatment
Procedure: SoftTrac 6 well plates with pre-made collagen coated 12 kPa hydrogels containing embedded 0.2 μm fluorescent beads were purchased from Matrigen. 200,000 cells per well were plated and allowed to grow for 24 hours to form epithelial islands, treated with the indicated metabolite for another 24 hours and live-imaged using DeltaVision microscope equipped with environmental chamber. After acquisition of cell and fluorescent bead images in steady state conditions, cells were detached with trypsin and imaging of beads was repeated in a relaxed state. Displacement map generation and force calculations were performed using MatLab script described in Butler et al. Am J Physiol Cell Physiol. 2002.

Caco2 cells [4] = conditions: 10 mM histamine
Procedure: For immunofluorescent staining, cells were permeabilized with 0.5% Triton ×100 in 3% paraformaldehyde for 3 minutes and fixed with 3% paraformaldehyde for an additional 30 minutes. Tight junction labeling was performed with either rabbit anti-cingulin antibodies or with anti-zo1 mouse monoclonal antibodies (BD Transduction Laboratories). Focal adhesions were labeled with either anti-paxillin mouse monoclonal antibodies (BD Transduction Laboratories) or with anti-zyxin rabbit polyclonal antibodies. Adherens junctions were labeled with anti-β-catenin rabbit polyclonal antibodies (Sigma). The following secondary, fluorescently labeled antibodies (Invitrogen) were used: Alexa Fluor 488 goat anti-mouse or anti-rabbit antibodies for tight junction visualization and Alexa Fluor 647 goat anti-mouse or anti-rabbit antibodies for focal adhesions or adherens junctions visualization. Actin was labeled with TRITC-phalloidin (Sigma) and nuclei with DAPI.

Citrobacter rodentium = format: in vivo, mouse; conditions: putrescine plus 30 mg/ml taurine in drinking water
Procedure: For putrescine treatment, mice received putrescine by oral gavage with a dose of 200 mg/kg twice daily for 10 days prior to and during DSS treatment or Citrobacter rodentium infection.
A kanamycin-resistant and luciferase-expressing derivative of Citrobacter rodentium DBS100 (ICC180) was used for infection as previously described (Thaiss et al., Science. 2018 Mar. 23; 359(6382):1376-1383).
Mice were infected with 200 μl solution containing approximately 1×10^9 colony-forming units (CFU) of overnight cultured bacteria by oral gavage. Infection was monitored by enumerating stool CFU and measuring abdominal bioluminescent. For in vivo bioluminescent imaging, mice were anesthetized and bioluminescence was measured using an IVIS2000 instrument and Living Image software (Perkin Elmer). For ex vivo luminescence quantification, the whole colons were dissected, extensively washed from all luminal contents, longitudinally cut open and immediately imaged. For CFU counts, stool or tissues were collected, weighed and homogenized in sterile phosphate buffered saline (PBS−/−). Homogenates were then serially diluted in PBS−/− and plated on LB kanamycin plates, incubated overnight at 37° C. Bacterial CFUs were counted the next day, normalizing them to the stool or tissue weight.

[5] = test system: tight junctions of Caco2 cells; assay: Human secreted molecules library screen for tight junction modulators; format: cell-based; conditions: Caco2, 24 hours; ng/ml: TNFa 50, Il-15 25, CCL-20 50, CCL-23 50, FGF-1 25, FGF-10 100, BMP-10 50, UTS-2 10, UCN-1 20, EPO 10, UCN-3 20, IL-21 30, CCL-3 40, TIMP-2 100, FasLG 10
Procedure: as §1, §3
A protein library, consisting of 295 human secreted proteins was used for identification of potential modulators of the barrier function of human intestinal epithelial cells.

N[C@@H](CCO)C(=O)O [L-homoserine]
focal adhesions size vs control non treated cells [1]: reduction in focal adhesions size
enlargement of focal adhesions caused by LPS [1]: prevent enlargement focal adhesions caused by LPS treatment
effect on tight junctions in metabolite screen ([2]; Caco2 cells): Stabilization
tight junction distortion caused by LPS ([2]; Caco2 cells): abolish tight junction distortion caused by LPS treatment alone

CC(=O)N1CCC[C@H]1C(=O)O [N-acetylproline]
focal adhesions size [1]: increase of focal adhesions size
effect on tight junctions in metabolite screen ([2]; Caco2 cells): Disruption
tight junction morphology ([2]; Caco2 cells): distortion of tight junction morphology

Cc1ccc2c(c1)C(=O)C1(O)CCN(c3ccccc3)C1=N2 (centres unmarked) [blebbistatin, reference compound]
forces applied to the substrate (cell contractility) (Caco2 cells [3]): cause cell relaxation
focal adhesions enlarged by LPS or histamine ([1]; co-treatment with 20 μM blebbistatin): reduction of focal adhesions
disruptive effect of LPS and histamine on tight junctions ([2]; Caco2 cells, co-treatment with 20 μM blebbistatin): abolishes disruptive effect of LPS and histamine on tight junctions

NCCc1c[nH]cn1 [histamine]
forces applied to the substrate (cell contractility) (Caco2 cells [3]): increases cell contractility
apical actin-enriched structures (Caco2 cells [4]): assembly of actin fibers in the same plane where tight junctions are located
focal adhesions size [1]: increase of focal adhesions size
recovery of the TJs after washout ([2]; CaCo2 cells pretreated 24 hrs with disruptor, then regular culture medium for 24 hours): nearly complete recovery of the TJs
TJ structure after disruptor treatment ([2]; CaCo2 cells, 24 hrs, LPS 300 ng/ml, Histamine 10 mM, putrescine 1 mM): pronounced TJ disruption
effect on tight junctions in metabolite screen ([2]; Caco2 cells): Disruption
tight junction disruption phenotype (type 1 zipper-like, type 2 flower-like) ([2]; Caco2 cells): type 2
tight junction morphology ([2]; Caco2 cells): distortion of tight junctions geometry; also recorded: distortion of tight junction morphology
tight junction phenotype in combination with LPS ([2]; Caco2 cells): double effect

NCCCNCCCCNCCCN [spermine]
focal adhesions size [1]: increase of focal adhesions size
effect on tight junctions in metabolite screen ([2]; Caco2 cells): Disruption
tight junction disruption phenotype (type 1 zipper-like, type 2 flower-like) ([2]; Caco2 cells): type 2
tight junction morphology ([2]; Caco2 cells): distortion of tight junction morphology
tight junction phenotype in combination with LPS ([2]; Caco2 cells): double effect

NCCS(=O)(=O)O [taurine]
disruptive effect of putrescine in mice with C. rodentium infection (Citrobacter rodentium): restoration of the disruptive effect of putrescine
recovery of TJ structure on replacement of disruptors with stabilizer [2]: full recovery of TJ structure
effect on tight junctions in metabolite screen ([2]; Caco2 cells): Stabilization
tight junction distortion caused by LPS ([2]; Caco2 cells): abolish tight junction distortion caused by LPS treatment alone

NCCc1c[nH]c2ccccc12 [tryptamine]
forces applied to the substrate (cell contractility) (Caco2 cells [3]): cause cell relaxation
focal adhesions size vs control non treated cells [1]: reduction in focal adhesions size
enlargement of focal adhesions caused by LPS [1]: prevent enlargement focal adhesions caused by LPS treatment
recovery of TJ structure on replacement of disruptors with stabilizer [2]: full recovery of TJ structure
effect on tight junctions in metabolite screen ([2]; Caco2 cells): Stabilization
tight junction distortion caused by LPS ([2]; Caco2 cells): abolish tight junction distortion caused by LPS treatment alone
disrupting activity of dysbiotic fecal extract ([2]; Caco2 cells, extract combined with 1 mM tryptamine or fecal extract from healthy animals): neutralized

Interleukin-21 [IL-21]
TJ morphology (cingulin) in secreted molecules screen [5]: improvement of TJ morphology in comparison to non-treated control
enlargement of focal adhesions on co-treatment with disruptor ([1]; paxilin): prevents enlargement of focal adhesions caused by treatments with disruptors only
distortion of tight junctions on co-treatment of stabilizer with disruptor ([2]; Caco2 cells, cingulin): abolished distortion of tight junctions observed in the treatment with disruptors alone
TJ tortuosity on co-treatment of disruptor with stabilizer ([2]; Caco2 cells, N≥200): reduces tortuosity to the level of untreated control

TNFa
TJ morphology (cingulin) in secreted molecules screen [5]: changes in TJ morphology similar to previously observed upon treatment with known pro-inflammatory mediators
tight junction disruption phenotype (type 1 zipper-like, type 2 flower-like) ([2]; Caco2 cells): type 1
tight junctions morphology (cingulin) ([2]; Caco2 cells, 50 ng/ml TNFa, 30 ng/ml IL1-b, 100 ng/ml LPS): significant alteration in tight junctions morphology

B1: Fibroblast growth factor 10 (protein, UniProt O15520 38-208, looked up)
Fibroblast growth factor 10: QALGQDMVSPEATNSSSSSFSSPSSAGRHVRSYNHLQGDVRWRKLFSFTKYFLKIEKNGKVSGTKKENCPYSILEITSVEIGVVAVKAINSNYYLAMNKKGKLYGSKEFNNDCKLKERIEENGYNTYASFNWQHNGRQMYVALNGKGAPRRGQKTRRKNTSAHFLPMVVHS
TJ morphology (cingulin) in secreted molecules screen [5]: changes in TJ morphology similar to previously observed upon treatment with known pro-inflammatory mediators

B2: Bone morphogenetic protein 10 (protein, UniProt O95393 317-424, looked up)
Bone morphogenetic protein 10: NAKGNYCKRTPLYIDFKEIGWDSWIIAPPGYEAYECRGVCNYPLAEHLTPTKHAIIQALVHLKNSQKASKACCVPTKLEPISILYLDKGVVTYKFKYEGMAVSECGCR
TJ morphology (cingulin) in secreted molecules screen [5]: changes in TJ morphology similar to previously observed upon treatment with known pro-inflammatory mediators
